The subject of one data set is L-929 fibroblasts. Description: Cytotoxicity, resazurin reduction. It is filed as cell-based, murine. The settings on record: L-929 cells, 24 h, resazurin fluorescence. How it is done:
The cytotoxicity assay was performed in the human hepatocellular carcinoma cell line Hep G2 ATCC and murine L-929 fibroblasts (NCTC clone 929, ECACC 88102702) obtained from the laboratory of Dr. Pérez-Tomás (Cancer Cell Biology, University of Barcelona). The cytotoxicity of the selected peptides was determined by measuring the intracellular reduction of resazurin sodium salt (Sigma-Aldrich, St. Louis, MO, USA). Briefly, HepG2 and L-929 cells were grown in RPMI 1640 or MEM medium, respectively (Biochrom AG, Berlin, Germany), supplemented with 10% fetal bovine serum. Cells from pre-confluent cultures were harvested with trypsin-EDTA and maintained at 37 °C in 5% CO2. Then, 100 µL of each cell line was seeded into 96-well flat-bottomed microplates and incubated for 24 h at 37 °C. The medium was then replaced with 200 μL of medium containing the dendrimers at concentrations ranging from 64 to 0.125 μg/mL and the microplates were incubated for 24 h at 37 °C. Next, 20 μL of resazurin was added to each well and the plates were incubated under the same conditions for 24 h. Fluorescence was measured using a multiwell scanning spectrophotometer at an excitation wavelength of 530 nm and an emission wavelength of 590 nm. Cytotoxicity was then calculated by comparing the fluorescence of the treated and untreated cells (Figure S22).
(In general: Resazurin is reduced to fluorescent resorufin, in cell work by metabolically active cells.)

For the next data set, the system named is E. coli 8248. Description: microbe, parasite or virus in culture. The class given is cell-based. To be noted: 8248, 24 h. How it is done:
(§1) E. coli ATCC 25922, P. aeruginosa ATCC 27853, S. aureus ATCC 29213, P. aeruginosa 666 SJD (ciprofloxacin-resistant), P. aeruginosa P12, P13, P15, P16 and P17 (MDR isolates) and E. coli 7987, 5545, 8248, 13974, 7259 and 208691 (MDR isolates) from our own collection were included in the present study.
(§2) The antimicrobial activity of the dendrimers was evaluated against E. coli ATCC 25922, P. aeruginosa ATCC 27853 and S. aureus ATCC 29213 strains. The MIC values were determined by the broth microdilution method. Briefly, the different strains were grown in Muller Hinton broth cation adjusted (MHBCA) medium overnight at 37 °C with shaking at 200 rpm. The bacterial cultures were then adjusted to OD625nm of 0.08–0.1, and 5 μL of each diluted suspension was added to 96-well plates previously filled with MHBCA and serially diluted peptides. Plates were incubated for 24 h at 37 °C. Finally, the MIC was determined macroscopically, based on the visual turbidity of the wells.

In a further data set the test system is E. coli 13974. Description: microbe, parasite or virus in culture. The class given is cell-based. The settings on record: 13974, 24 h. The method, then:
as §1, §2

The test system of the next data set is P. aeruginosa P15. Description: microbe, parasite or virus in culture. It is filed as cell-based. The settings on record: P15, 24 h. How it is done:
as §1, §2

In another data set the test system is P. aeruginosa P13. The data set can be described thus: microbe, parasite or virus in culture. It is filed as cell-based. To be noted: P13, 24 h. The method, then:
as §1, §2

A further data set concerns P. aeruginosa P17. Description: microbe, parasite or virus in culture. The class given is cell-based. To be noted: P17, 24 h. The method, then: as §1, §2
The subject of the next data set is E. coli 5545. Description: microbe, parasite or virus in culture. The class given is cell-based. The settings on record: 5545, 24 h. How it is done:
as §1, §2

For another data set, the system named is E. coli 208691. The data set can be described thus: microbe, parasite or virus in culture. It is filed as cell-based. To be noted: 208691, 24 h. How it is done: as §1, §2
Another data set concerns E. coli 7987. Description: microbe, parasite or virus in culture. It is filed as cell-based. To be noted: 7987, 24 h. The method, then: as §1, §2
The next data set deals with P. aeruginosa P12. Description: microbe, parasite or virus in culture. The class given is cell-based. The settings on record: P12, 24 h. How it is done: as §1, §2
The subject of the next data set is P. aeruginosa P16. Description: microbe, parasite or virus in culture. The class given is cell-based. The settings on record: P16, 24 h. How it is done:
as §1, §2

The subject of a further data set is E. coli 7259. The data set can be described thus: microbe, parasite or virus in culture. The class given is cell-based. The settings on record: 7259, 24 h. The method, then: as §1, §2
The subject of the next data set is S. aureus ATCC 29213. It is filed as cell-based. The settings on record: ATCC 29213, 24 h. The method, then:
as §2

For data set [1], the system named is E. coli ATCC 25922. The class given is cell-based. The settings on record: broth microdilution, MHBCA, 24 h, 37 °C, visual turbidity. How it is done: as §2
The subject of data set [2] is P. aeruginosa ATCC 27853. It is filed as cell-based. To be noted: broth microdilution, MHBCA, 24 h, 37 °C, visual turbidity. How it is done:
as §2

For another data set, the system named is MDR E. coli. The data set can be described thus: Checkerboard assay. It is filed as cell-based. To be noted: for interaction with ciprofloxacin: MDR E. coli; for interaction with rifampicin: strain not stated at this place, b42: results for rifampin quite similar to ciprofloxacin. How it is done:
(§3) A checkerboard assay was used to determine the fractional inhibitory concentrations (FICs) of dendrimers in combination with conventional antibiotics. Briefly, each well in a 96-well plate was inoculated with 100 µL of a bacterial inoculum of 1 × 10^6 CFU/mL, and the plates were incubated at 37 °C for 24 h. The FIC was calculated after identifying the first well in each row without growth (MIC), according to the following formula: FIC of drug A (FIC A) = (MIC of drug A in combination)/(MIC of A); FIC of drug B (FIC B) = (MIC of drug B in combination)/(MIC of B). The FIC index (FICI) values were calculated by adding the FIC of drug A to the FIC of drug B [46]. The interpretation of the (FICI) was the following: FICI ≤ 0.5, synergy; 0.5 < FICI ≤ 1, additivity; 1 < FICI ≤ 2 […].

Data set [3] concerns P. aeruginosa susceptible and resistant strains. Description: Checkerboard assay. The class given is cell-based. The settings on record: both susceptible and resistant strains. The method, then: as §3
In data set [4] the test system is E. coli susceptible strains. The data set can be described thus: Checkerboard assay. It is filed as cell-based. How it is done:
as §3

In data set [5] the test system is P. aeruginosa ATCC 27853. Description: Bacterial growth curves. It is filed as cell-based. To be noted: P. aeruginosa ATCC 27853, TSB, MIC, ½ MIC and ¼ MIC, 24 h, 37 °C, OD 850 nm. How it is done:
(§4) The real-time effect of the peptide dendrimers was examined on the growth curves of E. coli ATCC 25922 and P. aeruginosa ATCC 27853. Volumes of 10 mL of TSB liquid cultures containing 1–5 × 10^5 CFU/mL in the logarithmic phase were adjusted in Falcon tubes. Peptide dendrimers were then added at MIC and sub-inhibitory concentrations (½ MIC and ¼ MIC). Incubation was performed in RTS-1C real-time reverse spin bioreactors RTS-1 (Biosan) for 24 h at 37 °C and 2000 rpm. Growth was measured noninvasively as optical density (OD 850 nm) every 15 min.

Data set [6] relates to E. coli ATCC 25922. It is filed as cell-based. The settings on record: for effect on growth curve (in words): E. coli ATCC 25922, TSB, MIC, ½ MIC and ¼ MIC, 37 °C, OD 850 nm. The method, then:
as §4

≈ marks a conversion by molar mass, not a printed value. Starred links: 1 amine or outer side, 2 acyl side, 3 side chain; linkers in the order of their positions; H or OH if unused. Positions of bridges follow the written chain, without caps; N, C: chain ends. Residues, ends and D or L forms follow the SMILES beside them. Chains are numbered I, II in the order given. X1 = O=C(c1ccc(Oc2nc(NCCN[*:2])nc(NCCN[*:3])n2)cc1)[*:1]

In the case of `CC(C)C[C@H](NC(=O)c1ccc(Oc2nc(NCCNC(=O)[C@H](CCCCN)NC(=O)[C@H](CC(C)C)NC(=O)[C@H](CCCCN)NC(=O)[C@H](CC(C)C)NC(=O)[C@H](CCCCN)NC(=O)[C@@H](N)CC(C)C)nc(NCCNC(=O)[C@H](CCCCN)NC(=O)[C@H](CC(C)C)NC(=O)[C@H](CCCCN)NC(=O)[C@H](CC(C)C)NC(=O)[C@H](CCCCN)NC(=O)[C@@H](N)CC(C)C)n2)cc1)C(=O)N[C@@H](CCCCN)C(=O)N[C@@H](CC(C)C)C(=O)N[C@@H](CCCCN)C(=O)N[C@@H](CC(C)C)C(=O)N[C@@H](CCCCN)C(N)=O` [Dendrimer 1, H-[(LK)3]2-(EDA)2-TA-PHBA-(LK)3-NH2] (I: LKLKLK-NH2 / II: H-LKLKLK / III: H-LKLKLK; linker I:N-II:C-III:C via X1), the “% Cytotoxicity at 64µg/mL, L-929” value with L-929 fibroblasts worked out at 2.8%. The MIC in the data set with E. coli 8248 was 8 µg/mL (≈ 3.19 µM); in the data set with E. coli 13974, 8 µg/mL (≈ 3.19 µM); against P. aeruginosa P15 it was >128 µg/mL; in the data set on P. aeruginosa P13, 64 µg/mL (≈ 25.6 µM); in the data set on P. aeruginosa P17, 16 µg/mL (≈ 6.39 µM); in the data set with E. coli 5545, 8 µg/mL (≈ 3.19 µM). Further, the MIC against E. coli 208691 is 32 µg/mL (≈ 12.8 µM); in the data set on E. coli 7987, 8 µg/mL (≈ 3.19 µM); against P. aeruginosa P12, >128 µg/mL; against P. aeruginosa P16, 64 µg/mL (≈ 25.6 µM); against E. coli 7259 it was 32 µg/mL (≈ 12.8 µM). Moreover, in the data set with S. aureus ATCC 29213, the “MIC S. aureus ATCC 29213” value was >64 µg/mL. The “MIC E. coli ATCC 25922” value against E. coli ATCC 25922 [1] is 8 µg/mL (≈ 3.19 µM). Also, the “MIC P. aeruginosa ATCC 27853” value with P. aeruginosa ATCC 27853 [2] is 16 µg/mL (≈ 6.39 µM). Moreover, the figures for the interaction with ciprofloxacin result (in the data set with MDR E. coli; in [3]; in data set [4]) were “synergistic”, “additive effect” and “additive effect”, respectively. The interaction with rifampicin result in the data set with MDR E. coli is listed as “synergic”. Moreover, the “effect on growth curve (in words)” value is on record as “noticeable growth delay” in the data set with P. aeruginosa ATCC 27853 [5] and “fully inhibited growth at the three concentrations tested” in the data set on E. coli ATCC 25922 [6] (24 h). Further, the “MIC value deduced from microfermentor experiments” value with E. coli ATCC 25922 [6] (ATCC 25922, 24 h) is listed as < 2 µg/mL. Moreover, the “concentration that completely inhibited detectable growth” value with E. coli ATCC 25922 [6] (E. coli ATCC 25922, growth curves, 24 h) was 2 µg/mL.
For the compound `CC(C)C[C@H](NC(=O)[C@H](CCCCN)NC(=O)[C@H](CC(C)C)NC(=O)[C@H](CCCCN)NC(=O)[C@H](CC(C)C)Nc1nc(NCCNC(=O)[C@H](CCCCN)NC(=O)[C@H](CC(C)C)NC(=O)[C@H](CCCCN)NC(=O)[C@H](CC(C)C)NC(=O)[C@H](CCCCN)NC(=O)[C@@H](N)CC(C)C)nc(NCCNC(=O)[C@H](CCCCN)NC(=O)[C@H](CC(C)C)NC(=O)[C@H](CCCCN)NC(=O)[C@H](CC(C)C)NC(=O)[C@H](CCCCN)NC(=O)[C@@H](N)CC(C)C)n1)C(=O)N[C@@H](CCCCN)C(N)=O` [Dendrimer 2, H-[(LK)3-EDA]2-TA-(LK)3-NH2], in the data set with L-929 fibroblasts, the “% Cytotoxicity at 64µg/mL, L-929” value stood at 0%. Further, the MIC was found to be 8 µg/mL (≈ 3.36 µM) in the data set with E. coli 8248; 8 µg/mL (≈ 3.36 µM) in the data set with E. coli 13974; 16 µg/mL (≈ 6.71 µM) in the data set with P. aeruginosa P15; 32 µg/mL (≈ 13.4 µM) with P. aeruginosa P13; 16 µg/mL (≈ 6.71 µM) in the data set on P. aeruginosa P17; 8 µg/mL (≈ 3.36 µM) with E. coli 5545. For the same compound, the MIC in the data set with E. coli 208691 was determined as 8 µg/mL (≈ 3.36 µM); with E. coli 7987, 4 µg/mL (≈ 1.68 µM); against P. aeruginosa P12, 32 µg/mL (≈ 13.4 µM); against P. aeruginosa P16 it was 32 µg/mL (≈ 13.4 µM); with E. coli 7259, 2 µg/mL (≈ 0.839 µM). For the same compound, the “MIC S. aureus ATCC 29213” value against S. aureus ATCC 29213 was >64 µg/mL. The “MIC E. coli ATCC 25922” value in the data set on E. coli ATCC 25922 [1] was 2 µg/mL (≈ 0.839 µM). In the data set on P. aeruginosa ATCC 27853 [2], the “MIC P. aeruginosa ATCC 27853” value turned out to be 16 µg/mL (≈ 6.71 µM). Moreover, the interaction with ciprofloxacin result is given as “synergistic” in the data set on MDR E. coli, “additive effect” in data set [3] and “additive effect” in [4]. In addition, in the data set with MDR E. coli, the interaction with rifampicin result was “synergic”. Also, the “effect on growth curve (in words)” value is “complete growth inhibition occurred at the MIC” with P. aeruginosa ATCC 27853 [5] and “full growth inhibition only at the MIC” in the data set with E. coli ATCC 25922 [6] (24 h).

The values are drawn from publication PMC11172478, “1,3,5-Triazine as Branching Connector for the Construction of Novel Antimicrobial Peptide Dendrimers: Synthesis and Biological Characterization” (International Journal of Molecular Sciences, 2024).
